Measurements taken from patent US20110319660A1 (Galactic SA, priority 2008, published 2011).

How the values were obtained:
[1] = Thermal stability test: colour after heating at reflux at 200° C. for two hours; conditions: 90% solution of crystals
Protocol: The analyses conducted on the 90% crystal solutions are a measurement of the colour at ambient temperature (APHA scale in Hazen units) and a thermal stability test consisting of measuring the colour (APHA scale in Hazen units) of the substance after heating at reflux at a temperature of 200° C. for two hours.

[2] = Secondary nucleation temperature Tn of lactic acid solution; type: physicochemical
Protocol: We measured the secondary nucleation temperature for more reproducibility. For this purpose, a few large crystals (three or four) are introduced into the slightly subcooled solution (26° C.). These crystals are used to initiate nucleation. To obtain nucleation, the solution is cooled according to a cooling gradient of 10° C./hr. The nucleation temperature is measured when the first crystal (excluding crystals in solution) appears.

[3] = Specific surface area by mass of crystals by optical microscopy; type: physicochemical
From the text: The specific surface area by mass (SSM) of crystals is the area developed by the crystals per unit of weight. The specific surface area by mass (SSM) is used to compare the dimensional characteristics of crystals of a suspension or a powder with those of another suspension or powder. This specific surface area can be measured by means of optical imaging on the basis of a volume (Vm) and the mean surface area (Sm) of hundreds of crystals (by measuring the length of the face thereof) and the density of the crystals (Dc):
The crystal size measurements were made using an optical microscope (Askania RME5) equipped with a digital camera (Nikon Coolpix 4500) with crystal measurement software supplied by Leica. For both test conditions, the length (L1) and thickness (L2) of 200 crystals were measured.
The specific surface area by mass of the crystals obtained at low supersaturation is 0.03 m^2/g whereas that of the crystals at high supersaturation is 0.06 m^2/g. This is calculated by taking the surface area and the volume of a parallelepiped having a length L1 and width and thickness L2.
The specific surface area by mass of the crystals is also estimated by measuring the length and thickness of 200 crystals of each sample according to the protocol described in example 1.

With `CC(O)C(=O)O` (centres unmarked) [lactic acid, hydroxy-2-propanoic acid] the “Colour after heating (200° C., 2 hrs), after drying” value (“Colour after heating … after drying” for short) ([1]; Example 2: supersaturation 14%) was 500 Hazen, the “Colour after heating (200° C., 2 hrs), after passage on Noritt ROX activated carbon (20 g/l)” value ([1]; Example 2: supersaturation 14%) was 25 Hazen and the “Colour after heating (200° C., 2 hrs), after washing (25% of a 90% lactic acid solution, 4° C.)” value ([1]; Example 2: supersaturation 14%) was 49 Hazen. For the same compound, the “Colour after heating … after drying” value ([1]; Example 2: supersaturation 50%) was 900 Hazen, the “Colour after heating (200° C., 2 hrs), after passage on Noritt ROX activated carbon (20 g/l)” value ([1]; Example 2: supersaturation 50%) was 45 Hazen and the “Colour after heating (200° C., 2 hrs), after washing (25% of a 90% lactic acid solution, 4° C.)” value ([1]; Example 2: supersaturation 50%) was 88 Hazen. The “Colour after heating … after drying” value ([1]; Example 2: supersaturation 86%) was 1328 Hazen, the “Colour after heating (200° C., 2 hrs), after washing (25% of a 90% lactic acid solution, 4° C.)” value ([1]; Example 2: supersaturation 86%) was 480 Hazen and the secondary nucleation temperature ([2]; Example 1: lactic acid concentration 92%, colour 2000 Hazen, relative monomer content 96%) was 18 °C. It also gave a Tn ([2]; Example 2: lactic acid concentration 90%, colour 1800 Hazen, relative monomer content 94%) of 18 °C, a Tn ([2]; Example 4: lactic acid concentration 95.4%, colour 1900 Hazen, relative monomer content 91%) of 33 °C and a Tn ([2]; total acidity 89%, free acidity 78.7%, relative monomer content 77%) of 8 °C. It also gave a Tn ([2]; total acidity 89%, free acidity 84%, relative monomer content 89%) of 15 °C, a Tn ([2]; total acidity 89%, free acidity 87.6%, relative monomer content 97.5%) of 22 °C and a Tn ([2]; total acidity 89%, free acidity 88.2%, relative monomer content 99%) of 23 °C. The “Specific surface area by mass” value ([3]; Example 1: crystals obtained at high supersaturation Ds^c=87.5%) was 0.06 m^2/g, the “Specific surface area by mass” value ([3]; Example 1: crystals obtained at low supersaturation Ds^c=12.5%) was 0.03 m^2/g and the “Specific surface area by mass” value ([3]; Example 2: crystals, supersaturation 14%) was 0.03 m^2/g. For the same compound, the “Specific surface area by mass” value ([3]; Example 2: crystals, supersaturation 50%) was 0.045 m^2/g and the “Specific surface area by mass” value ([3]; Example 2: crystals, supersaturation 86%) was 0.07 m^2/g.
